How the values were obtained:
Rab10 pThr73 [1] = test: Rab10 Thr73 dephosphorylation (immunoblot) in LRRK2^G2019S MEFs; type: cell-based; conditions: Mus musculus, read-out: pRab10 inhibited in LRRK2^G2019S MEFs
Rab10 pThr73 [2] = test: as above; type: cell-based, mouse; conditions: Mus musculus, read-out: pRab10 inhibited in LRRK2^G2019S MEFs
Rab10 pThr73 [3] = test: Rab10 Thr73 dephosphorylation (immunoblot) in WT MEFs; type: cell-based, mouse; conditions: Mus musculus, read-out: pRab10 inhibited in WT MEFs
In short: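 Wild-type mouse embryonic fibroblasts in 6-well plates were treated with LRRK2 PROTACs, with two biological replicates per condition. Cells were washed in PBS and lysed on ice in buffer containing phosphatase and protease inhibitors plus 1% Triton X-100, then clarified at 15,000 g. Rab10 Thr73 phosphorylation was measured by quantitative immunoblotting of 15 to 20 μg protein on 4-12% Bis-Tris gels.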

Row | Structure (SMILES) | inhibition at 0.033 µM (Rab10 pThr73 [1]; 33 nM/4 h treatment) | inhibition at 0.033 µM (Rab10 pThr73 [1]; 33 nM/24 h treatment) | inhibition at 1 µM (Rab10 pThr73 [2]; 1 μM/4 h treatment) | inhibition at 1 µM (Rab10 pThr73 [2]; 1 μM/24 h treatment) | inhibition at 0.033 µM (Rab10 pThr73 [3]; 33 nM/4 h treatment) | inhibition at 0.033 µM (Rab10 pThr73 [3]; 33 nM/24 h treatment) | inhibition at 1 µM (Rab10 pThr73 [3]; 1 μM/4 h treatment) | inhibition at 1 µM (Rab10 pThr73 [3]; 1 μM/24 h treatment)
1 | CNc1nc(Nc2ccc(C(=O)N3CCN(CCOCCOCCOc4cc(-c5scnc5C)ccc4CNC(=O)[C@@H]4C[C@@H](O)CN4C(=O)[C@@H](NC(=O)C4(F)CC4)C(C)(C)C)CC3)cc2OC)ncc1Cl [SD12, (2S,4R)—N-(2-(2-(2-(2-(4-(4-((5-chloro-4-(methylamino)pyrimidin-2-yl)amino)-3-methoxybenzoyl)piperazin-1-yl)ethoxy)ethoxy)ethoxy)-4-(4-methylthiazol-5-yl)benzyl)-1-((S)-2-(1-fluorocyclopropane-1-carboxamido)-3,3-dimethylbutanoyl)-4-hydroxypyrrolidine-2-carboxamide] | 0 to 60% | 0 to 70% | 30 to 95% | 30 to 100% | 0 to 25% | 10 to 40% | 18 to 90% | 30 to 90%
2 | CNc1nc(Nc2ccc(C(=O)N3C[C@@H](C)N(C[C@H]4CC[C@H](CSC(C)(C)C(NC(=O)C5(F)CC5)C(=O)N5C[C@H](O)C[C@H]5C(=O)NCc5ccc(-c6scnc6C)cc5)CC4)[C@@H](C)C3)cc2OC)ncc1Cl (stereo partly shown) [XL02031] | 0 to 90% | 30 to 90% | 10 to 100% | 80 to 100% | 0 to 70% | 0 to 80% | 80 to 100% | 80 to 100%
3 | CNc1nc(Nc2ccc(OCCOCCOCCOCCSC(C)(C)[C@@H](NC(=O)C3(F)CC3)C(=O)N3C[C@H](O)C[C@H]3C(=O)NCc3ccc(-c4scnc4C)cc3)cc2OC)ncc1Cl [XL01145, (2S,4R)-1-((S)-1-(4-((5-chloro-4-(methylamino)pyrimidin-2-yl)amino)-3-methoxyphenoxy)-14-(1-fluorocyclopropane-1-carboxamido)-13,13-dimethyl-3,6,9-trioxa-12-thiapentadecan-15-oyl)-4-hydroxy-N-(4-(4-methylthiazol-5-yl)benzyl)pyrrolidine-2-carboxamide] | 0 to 70% | 0 to 90% | 20 to 100% | 10 to 100% | 0 to 40% | 0 to 60% | 10 to 95% | 30 to 100%
4 | CNc1nc(Nc2ccc(C(=O)N3CCN(CCOCCOCCOCCOCCOc4cccc(C(=O)c5csc(C6CCCN6C(=O)[C@@H](NC(=O)[C@H](C)NC)C6CCCCC6)n5)c4)CC3)cc2OC)ncc1Cl (stereo partly drawn) [SD112, (S)—N—((S)-2-((S)-2-(4-(3-((14-(4-(4-((5-chloro-4-(methylamino)pyrimidin-2-yl)amino)-3-methoxybenzoyl)piperazin-1-yl)-3,6,9,12-tetraoxatetradecyl)oxy)benzoyl)thiazol-2-yl)pyrrolidin-1-yl)-1-cyclohexyl-2-oxoethyl)-2-(methylamino)propenamide] | 0 to 60% | 0 to 70% | 30 to 95% | 30 to 100% | 0 to 25% | 10 to 40% | 18 to 90% | 30 to 90%
5 | CNc1nc(Nc2ccc(C(=O)N3CCN(Cc4cccc(CSC(C)(C)[C@H](NC(=O)C5(F)CC5)C(=O)N5C[C@H](O)C[C@H]5C(=O)NCc5ccc(-c6scnc6C)cc5)c4)CC3)cc2OC)ncc1Cl [XL01111, (2S,4R)-1-((R)-3-((3-((4-(4-((5-chloro-4-(methylamino)pyrimidin-2-yl)amino)-3-methoxybenzoyl)piperazin-1-yl)methyl)benzyl)thio)-2-(1-fluorocyclopropane-1-carboxamido)-3-methylbutanoyl)-4-hydroxy-N-(4-(4-methylthiazol-5-yl)benzyl)pyrrolidine-2-carboxamide] | 0 to 70% | 0 to 90% | 20 to 100% | 10 to 100% | 0 to 40% | 0 to 60% | 10 to 95% | 30 to 100%
